Results reported in patent publication US20240408064A1, “RAS INHIBITORS, COMPOSITIONS AND METHODS OF USE THEREOF” (GENETOLEAD INC., priority 2021, published 2024).
Entries after “also recorded” stand apart in the source; their conditions may differ.

What was measured:
HRas^G12V [1] = biological target: T1, HRas^G12V (Homo sapiens (Human), UniProt P01112, G12V); test: 19F DLB (ligand-observed 19F NMR) score; assay type: binding; design: scale not given here
Method in brief: (§1)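 In the T2-CPMG experiment, echo spacing was 1 ms and total delays ranged over eight values from 1 to 800 ms. Both scores come from 600 MHz NMR of 50 μM HRas G12V mixed with fragment pools at 240 μM each, in phosphate buffer pH 7.4 with NaCl, MgCl2 and TCEP-d16. Ligand-observed 19F spectra were recorded with 1H decoupling, 64 scans and a 5 s relaxation delay.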

HRas^G12V [2] = biological target: T1, HRas^G12V; test: 19F T2-CPMG NMR score; assay type: binding
Method in brief: as §1

HRas^G12V [3] = biological target: T1, HRas^G12V; test: Overall binding/activity in the various assays (NMR consensus binding)
Description: Since the fragment library was curated using phosphate buffer, 25 mM sodium phosphate pH 7.4, 150 mM NaCl, 5 mM MgCl2, 1 mM TCEP-d16, 10% D2O Fresh TCEP was used for experiments. Screening was performed using ^1H-decoupled 1D ^19F experiment Bruker experiment (zgfhigqn.2) with 64 scans and a relaxation delay of 5 seconds. 50 μM HRas^G12V and 240 μM of each fragment in pools (mixtures) were used.
Hit confirmation was performed using the same ^19F experiment as the screen. Ligand-observed 1D ^1H, protein-observed 1D ^1H, ^1H T2-CPMG as well as Saturation Transfer Difference (STD) experiments were also run on the same samples. Ligand-observed 1D ^1H was run using the standard Bruker sequence with excitation sculpting (zgesgp) with a relaxation delay of 10 seconds and 16 scans per spectrum. Protein-observed 1D ^1H was performed using the same sequence with a relaxation delay of 1 second and 256 scans in order to increase the signal-to-noise of the protein resonances, while keeping the experimental time relatively short. The ^1H T2-CPMG experiment employed a modified version of the Bruker 1D ^1H zgesgp experiment with the addition of a CPMG pulse train after the first 90° excitation pulse. Total duration for each spin echo was fixed at 1 ms (τ=500 μs), while the number of echoes in the pulse train was varied according to the total time (T). The number of scans for each spectrum was 4 and eight delay times were run on each sample, ranging from 1 ms to 800 ms.
STD experiments consisted of two independent spectra with offsets of 0 ppm (on resonance) and −20 ppm (off resonance). […] 160 scans were acquired for each spectrum.
The results obtained with the compounds in the various assays described above are depicted in Table 21.
Because of its power to probe the intrinsically weak interactions (Kd) between targets and low-molecular weight fragments, NMR fragment-based lead discovery (FBLD) is a very useful biophysical method in early stage drug discovery, especially for challenging target proteins; including those with shallow binding pockets. Since FBLD screens are performed using low-molecular weight compounds (fragments) with lower structural complexity, the same chemical space can be covered using a smaller number of drug-like fragments versus use of large libraries of higher-molecular weight lead-like compounds as in high throughput screening (HTS) campaigns. Therefore, FBLD has a much higher hit rate than HTS using only several hundred to several thousand compounds in comparison with approximately 1 million compounds for HTS. Also, the small size of the compounds screened in FBLD means a better chance to fully match the interactions with small or transient pockets within the target protein, where these less tractable pockets cannot be accessed with standard classical HTS methods. […] We expect this methodology to be more advantageous than classical HTS methods for expediting the time from hit to lead (H2L) and allows for rapid access to high quality leads with lower attrition rates in subsequent lead optimization (LO) campaigns toward pre-clinical candidate selection. FBLD screening by NMR involves a “consensus binding” approach where several distinct NMR experiments (DLB, STD, CPMG) are applied along with a free-state aggregation detection method (T2-CPMG) to rank the compounds for their affinity to the receptor (HRAS in this case) whilst simultaneously monitoring the solution behavior and critical quality attributes of each compound. The latter helps to eliminate artifact binders which are highly problematic. We performed a fluorine screen involving 461 compounds that were derived from a highly curated fragment library. Moreover, two-dimensional ^15N HSQC NMR was also used to validate ligand-binding sites on the target protein. In addition, we employed protein-detected biophysical measurements were employed to determine fragment binding affinities to the target protein (Kd) by HSQC NMR. […]

| Structure (SMILES) | 19F DLB Score (HRas^G12V [1]) | 19F T2-CPMG Score (HRas^G12V [2]) | Binding to HRas^G12V (in words) (HRas^G12V [3]) | Activity ranking on HRas^G12V (in words) (HRas^G12V [3]) |
| --- | --- | --- | --- | --- |
| C[C@@H](NC(=O)Cc1c[nH]c2cc(F)ccc12)C(=O)O [Compound 10083] | 1.14 | 2.8 | low or no binding | – |
| CCN(CC)CC(=O)NCCc1c[nH]c2cc(F)ccc12 [Compound 10064] | 1.16 | 1.74 | low or no binding | – |
| O=C(O)CC(c1ccccc1F)c1c[nH]c2cc(F)ccc12 (stereo not drawn) [Compound 11043] | 3.27 | 20.23 | – | More active |
| O=C(O)[C@H]1CN(C(=O)Cc2c[nH]c3cc(F)ccc23)CCO1 [Compound 10153] | 1.39 | 3.22 | low or no binding | – |
| CC1(C)OC(=O)C(C(c2ccccc2F)c2c[nH]c3cc(F)ccc23)C(=O)O1 (stereo not drawn) [Compound 11041] | 1.65 | 3.61 | low or no binding | – |
| O=C(Cc1c[nH]c2cc(F)ccc12)N1CCOC(c2ccccc2)C1 (stereo not drawn) [Compound 10136] | 1.55 | 6.73 | low or no binding | – |
| CC(C)(C(=O)N1CCC1)c1c[nH]c2cc(F)ccc12 [Compound 10049, 1-(azetidin-1-yl)-2-(6-fluoro-1H-indol-3-yl)-2-methylpropan-1-one] | 1.43 | 3.53 | low or no binding | – |
| O=C(O)[C@@H]1CCCN(C(=O)Cc2c[nH]c3cc(F)ccc23)C1 [Compound 10149] | 1.56 | 2.26 | low or no binding | – |
| O=C(Cc1c[nH]c2cc(F)ccc12)NCCc1ccc(F)cc1 [Compound 10031] | 1.13 | 1.34 | low or no binding | – |
| O=C(O)C1CCN1C(=O)Cc1c[nH]c2cc(F)ccc12 (stereo not drawn) [Compound 10102, 1-(2-(6-fluoro-1H-indol-3-yl)acetyl) azetidine-2-carboxylic acid] | 1.06 | 2.65 | low or no binding | – |
| O=C(c1ccccc1)N1CCC(c2c[nH]c3cc(F)ccc23)CC1 [Compound 11025] | 1 | −2.12 | low or no binding | – |
| COC(=O)[C@@H]1CN(C(=O)Cc2c[nH]c3cc(F)ccc23)CCN1C [Compound 10163] | 1.61 | 7.3 | low or no binding | – |
| CCOC(=O)C(Cc1ccc(O)cc1)NC(=O)Cc1c[nH]c2cc(F)ccc12 (stereo not drawn) [Compound 10098] | 1.38 | 5.94 | low or no binding | – |
| CCOC(=O)CNC(=O)Cc1c[nH]c2cc(F)ccc12 [Compound 10050] | 1.22 | 2.95 | low or no binding | – |
| COC(=O)C1CN(C(C)C)CCC1NC(=O)Cc1c[nH]c2cc(F)ccc12 (stereo not drawn) [Compound 10141, methyl 4-(2-(6-fluoro-1H-indol-3-yl)acetamido)-1-isopropylpiperidine-3-carboxylate] | 1.21 | 3.15 | low or no binding | – |
| Cn1cc(CC(=O)N2CCC2)c2ccc(F)cc21 [Compound 10024, 1-(azetidin-1-yl)-2-(6-fluoro-1-methyl-1H-indol-3-yl) ethan-1-one] | 1.06 | 0.01 | low or no binding | – |
| CN(C)CC(=O)Nc1ccccc1NC(=O)Cc1c[nH]c2cc(F)ccc12 [Compound 11014] | 1.44 | 3.32 | low or no binding | – |
| CC(=O)N1CCC[C@H]1C(=O)NCCc1c[nH]c2cc(F)ccc12 [Compound 10045] | 1.1 | 1.13 | low or no binding | – |
| CCOC(=O)[C@@H](NC(=O)Cc1c[nH]c2cc(F)ccc12)C(C)C [Compound 10079, Ethyl (2-(6-fluoro-1H-indol-3-yl)acetyl)valinate] | 1.23 | 2.25 | low or no binding | – |
| CS(=O)(=O)NCCC(=O)NCCc1c[nH]c2cc(F)ccc12 [Compound 10082, N-(2-(6-fluoro-1H-indol-3-yl)ethyl)-3-(methylsulfonamido)propanamide] | 1.22 | 2.61 | low or no binding | – |
| CN(C)CC(=O)Nc1ccc(NC(=O)Cc2c[nH]c3cc(F)ccc23)cc1 [Compound 11008] | 6.41 | 38.4 | – | More active; also recorded: Most active |
| CCOC(=O)C(CC(N)=O)NC(=O)Cc1c[nH]c2cc(F)ccc12 (stereo not drawn) [Compound 10101] | 1.12 | 1.74 | low or no binding | – |
| COC(=O)[C@H]1CN(C)CCN1C(=O)Cc1c[nH]c2cc(F)ccc12 [Compound 10157, Methyl (R)-1-(2-(6-fluoro-1H-indol-3-yl)acetyl)-4-methylpiperazine-2-carboxylate] | 1.04 | 3.58 | low or no binding | – |
| O=C(Cc1c[nH]c2cc(F)ccc12)NCCN1CCOCC1 [Compound 10015] | 1.57 | 7.79 | low or no binding | – |
| CCOC(=O)[C@@H]1COCCN1C(=O)Cc1c[nH]c2cc(F)ccc12 [Compound 10140, ethyl (S)-4-(2-(6-fluoro-1H-indol-3-yl)acetyl) morpholine-3-carboxylate] | 1.49 | 5.98 | low or no binding | – |
| CC(=O)NC[C@@H]1CN(C(=O)Cc2c[nH]c3cc(F)ccc23)CCO1 [compound 10164] | 1.61 | 5.59 | low or no binding | – |
| CCOC(=O)C(Cc1c[nH]cn1)NC(=O)Cc1c[nH]c2cc(F)ccc12 (stereo not drawn) [Compound 10104] | 1.14 | 2.49 | low or no binding | – |
| O=C(O)[C@H]1CCCN(C(=O)Cc2c[nH]c3cc(F)ccc23)C1 [Compound 10133, (S)-1-(2-(6-fluoro-1H-indol-3-yl)acetyl)piperidine-3-carboxylic acid] | 1.63 | 2.85 | low or no binding | – |
| CC(=O)NC[C@H]1CN(C(=O)Cc2c[nH]c3cc(F)ccc23)CCO1 [Compound 10162, (S)—N-((4-(2-(6-fluoro-1H-indol-3-yl)acetyl)morpholin-2-yl)methyl) acetamide] | 1.65 | 5.5 | low or no binding | – |
| CCOC(=O)C[C@H]1CN(C(=O)Cc2c[nH]c3cc(F)ccc23)CCO1 [Compound 10177, Ethyl (S)-2-(4-(2-(6-fluoro-1H-indol-3-yl)acetyl)morpholin-2-yl)acetate] | 1.12 | 7.14 | low or no binding | – |
